Source: patent US20040137574A1, “Novel polypeptide” (Pfizer Inc, priority 2000, published 2004)

What was measured:
PFI-019 = biological target: T1, PFI-019 (Homo sapiens, UniProt Q96P68); test: FLIPR cell-based assay for agonist activation of PFI-019 (calcium fluorescence, Fluo3); conditions: PFI-019-transfected HEK 293 cells expressing mouse Gα15, fluorescence intensity versus time
T1 construct: amplify the PFI-019 coding region from human genomic DNA; N-terminal polyhistidine/Xpress leader of vector pcDNA4/HisMax-TOPO (inferred from the vector name); expressed in transfected cells; host or cells: HEK293 cells expressing the mouse Galpha15 gene, transiently transfected
Procedure: Fluorescence Imaging Plate Reader (FLIPR®) technology was employed as a means to detect activation of PFI-019 by agonists in a cell-based assay.
(§1) 5×10^6 Human Embryonic Kidney (HEK) 293 cells expressing the mouse Gα15 gene (from here on called '293 cells'), were transiently transfected with 7.5 μg of PFI-019 (contained within the pcDNA4HIS-max-TOPO (Invitrogen) plasmid) vector, or vector alone, using Lipofectamine Plus® reagent (Gibco BRL) as per the manufacturer's protocol. The plasmid pcDNA4HIS-max-TOPO was used as it contains elements that up-regulate the level of gene transcription over standard pcDNA3.1 vectors. 24 hrs post-transfection, the cells were detached from the flask using Trypsin/EDTA solution (LTI) and seeded into a black sided, Poly-D-lysine-treated, 96-well plate (Becton Dickinson) at 5×10^4 cells/well density. The plates were left overnight to allow the cells to adhere to the bottom of the wells. […] The FLIPR® processing involved reading the fluorescence for all samples for 2 minutes; during this time the fluorescence baseline was determined for the first 10 seconds. The desired amount of compound was then automatically transferred to the wells, and the fluorescence was continuously monitored for the remainder of the time. […]

[1] = test system: Vector-only transfected 293 cells; test: FLIPR cell-based assay, vector-only (mock) transfected control cells; parameters: species or system human; conditions: vector-only transfected HEK 293 cells expressing mouse Gα15
Procedure: as §1

stimulation of PFI-019 (fluorescence response) (PFI-019) | Structure (SMILES) | response of vector-only transfected 293 cells (fluorescence) [1]
stimulation of PFI-019 | Nc1nc(Cl)nc2c1ncn2[C@@H]1O[C@H](COP(=O)([O-])OP(=O)([O-])OP(=O)([O-])[O-])[C@@H](O)[C@H]1O.[Na+].[Na+].[Na+].[Na+] [2-chloro-ATP, 2-chloroadenosine triphosphate tetrasodium] | no measurable response
stimulation of PFI-019 | O=c1ccn([C@@H]2O[C@H](COP(=O)(O)OP(=O)(O)OP(=O)(O)O)[C@@H](O)[C@H]2O)c(=O)[nH]1 [UTP, Uridine triphosphate] | no measurable response
